Earlier results, collected in patent US11440912B2, “Process for the preparation of ribociclib and its salts” (FRESENIUS KABI ONCOLOGY LIMITED, priority 2017, dated 2022).

Settings: at 80% RH

ribociclib succinate converts to hydrated form from the non-hydrated form: 0.52%
Structure (SMILES): CN(C)C(=O)c1cc2cnc(Nc3ccc(N4CCNCC4)cn3)nc2n1C1CCCC1.O=C(O)CCC(=O)O [ribociclib succinate]
